Experimental data from US4562287A, “2-(4-Biphenylyl)-4-hexenoic acid and derivatives thereof having anti-inflammatory activity” (priority 1983, dated 1985).

Key:
[1] = system: Carragenine induced edema; test: Anti-inflammatory activity on carragenine induced edema (Table 11); assay type: in vivo; conditions: 50 mg/Kg p.o.
[2] = system: Carragenine induced edema; test: Carragenine induced edema, first test (Table 2); assay type: in vivo
Text: |ANTI-INFLAMMATORY ACTIVITY. |Carragenine induced edema, first test.

[3] = system: erytrocytes sedimetation rate (ESR); test: Erytrocytes sedimetation rate (ESR) (Table 8); assay type: in vivo; set-up: unit not given here; conditions: arthritis checks 41, 56
[4] = system: Freund's adjuvant induced arthritis; test: Freund's adjuvant induced arthritis, edema inhibition
SH Groups in serum = test: SH groups in serum (Table 8); assay type: in vivo; conditions: arthritis checks 70, 77
Joint's diameter = Joint's diameter in arthritis (Table 7); assay type: in vivo; set-up: unit not given here
[5] = system: Cotton-pellets induced granuloma; test: Cotton-pellets induced granuloma; assay type: in vivo; conditions: 200 mg/Kg p.o.
Text: | Cotton-pellets induced granuloma.

Kaolin edema = test: Edema induced by different substances: kaolin (Table 3); assay type: in vivo
Text: (§1) |Edema induced by different substances.

Carragenine edema = test: Edema induced by different substances: carragenine (Table 3); assay type: in vivo
Text: as §1

Dextrose edema = test: Edema induced by different substances: dextrose (Table 3); assay type: in vivo
Text: as §1

Yeast edema = test: Edema induced by different substances: yeast (Table 3); assay type: in vivo
Text: |Edema induced by different substances. | % edema inhibition

Serotonin edema = test: Edema induced by different substances: serotonin (Table 3); assay type: in vivo
Text: as §1

[6] = system: Carragenine induced edema; test: Activity on carragenine induced edema (Table 9); assay type: in vivo
Text: |Activity on carragenine induced edema.

pain threshold = test: Analgesic activity, RANDALL-SELLITO pain threshold; assay type: in vivo
Text: | RANDALL-SELLITO pain threshold

[7] = system: Hot plate, endurance time at 52° C.; test: Analgesic activity, Hot plate (I); assay type: in vivo; conditions: 50 mg/Kg p.o., 2 hours
Protocol: (§2) Dose endurance time at 52° C. over checks

[8] = system: Hot plate, endurance time at 52° C.; test: Analgesic activity, Hot plate (II); assay type: in vivo
Protocol: as §2

in vivo = conditions: po, rat, p.o., read-out: DL50 (the source's name)

CC(=O)Oc1ccccc1C(=O)O [Acetylsalicylic acid, reference compound]
% inhibition [1]: 23%

CC(C)Cc1ccc(C(C)C(=O)O)cc1 (stereo not shown) [Ibuprofen]
% inhibition ([2]; 12.5 mg/Kg p.o.): 27% | % inhibition ([2]; 25 mg/Kg p.o.): 33% | % inhibition ([2]; 50 mg/Kg p.o.): 47% | % inhibition ([2]; 100 mg/Kg p.o.): 54% | E.S.R. ([3]; 20 mg/Kg p.o.): 58 | E.S.R. ([3]; 40 mg/Kg p.o.): 30 | Edema inhibition % ([4]; 20 mg/Kg p.o., 2 days): 34% | Edema inhibition % ([4]; 20 mg/Kg p.o., 4 days): 29% | Edema inhibition % ([4]; 20 mg/Kg p.o., 8 days): 19% | Edema inhibition % ([4]; 20 mg/Kg p.o., 12 days): 24% | Edema inhibition % ([4]; 20 mg/Kg p.o., 16 days): 14% | Edema inhibition % ([4]; 20 mg/Kg p.o., 24 days): 4% | Edema inhibition % ([4]; 40 mg/Kg p.o., 2 days): 32% | Edema inhibition % ([4]; 40 mg/Kg p.o., 4 days): 17% | Edema inhibition % ([4]; 40 mg/Kg p.o., 8 days): 26% | Edema inhibition % ([4]; 40 mg/Kg p.o., 12 days): 19% | Edema inhibition % ([4]; 40 mg/Kg p.o., 16 days): 27% | Edema inhibition % ([4]; 40 mg/Kg p.o., 20 days): 19% | Edema inhibition % ([4]; 40 mg/Kg p.o., 24 days): 9% | SH groups diminution in % (SH Groups in serum; 20 mg/Kg p.o.): 78% | SH groups diminution in % (SH Groups in serum; 40 mg/Kg p.o.): 73% | % inhibition [1]: 40% | Joint's diameter (Joint's diameter; 20 mg/Kg p.o., 1 week, arthritis checks 0.48, 0.38): 0.31 | Joint's diameter (Joint's diameter; 20 mg/Kg p.o., 2 weeks, arthritis checks 0.71, 0.75): 0.53 | Joint's diameter (Joint's diameter; 20 mg/Kg p.o., 3 weeks, arthritis checks 0.81, 0.79): 0.65 | Joint's diameter (Joint's diameter; 20 mg/Kg p.o., 4 weeks, arthritis checks 0.85, 0.89): 0.81 | Joint's diameter (Joint's diameter; 40 mg/Kg p.o., 1 week, arthritis checks 0.48, 0.38): 0.35 | Joint's diameter (Joint's diameter; 40 mg/Kg p.o., 2 weeks, arthritis checks 0.71, 0.75): 0.60 | Joint's diameter (Joint's diameter; 40 mg/Kg p.o., 3 weeks, arthritis checks 0.81, 0.79): 0.75 | Joint's diameter (Joint's diameter; 40 mg/Kg p.o., 4 weeks, arthritis checks 0.85, 0.89): 0.80

CCCCC1C(=O)N(c2ccccc2)N(c2ccc(O)cc2)C1=O (stereo not shown) [Oxyphenbutazone, reference compound]
% inhibition [1]: 41% | % inhibition [5]: 24%

CCCCC1C(=O)N(c2ccccc2)N(c2ccccc2)C1=O [PHENYL-BUTAZONE, phenylbutazone, reference compound]
% inhibition ([2]; 75 mg/Kg p.o.): 43% | % inhibition ([2]; 150 mg/Kg p.o.): 46% | % edema inhibition (Kaolin edema; 50 mg/Kg p.o.): 41% | % edema inhibition (Kaolin edema; 100 mg/Kg p.o.): 40% | % edema inhibition (Kaolin edema; 200 mg/Kg p.o.): 53% | % edema inhibition (Carragenine edema; 50 mg/Kg p.o.): 13% | % edema inhibition (Carragenine edema; 100 mg/Kg p.o.): 32% | % edema inhibition (Carragenine edema; 200 mg/Kg p.o.): 61% | % edema inhibition (Dextrose edema; 50 mg/Kg p.o.): 0% | % edema inhibition (Dextrose edema; 100 mg/Kg p.o.): 0% | % edema inhibition (Dextrose edema; 200 mg/Kg p.o.): 18% | % edema inhibition (Yeast edema; 50 mg/Kg p.o.): 7% | % edema inhibition (Yeast edema; 100 mg/Kg p.o.): 23% | % edema inhibition (Yeast edema; 200 mg/Kg p.o.): 18% | % edema inhibition (Serotonin edema; 50 mg/Kg p.o.): 24% | % edema inhibition (Serotonin edema; 100 mg/Kg p.o.): 12% | % edema inhibition (Serotonin edema; 200 mg/Kg p.o.): 25%

CC=CCC(C(=O)O)c1ccc(-c2ccc(F)cc2)cc1 (stereo not shown) [SCR 159, 2-[4-biphenylyl-(4' fluoro)]4-hexenoic acid]
Inhibition % ([6]; 53 mg/Kg p.o.): 29% | Inhibition % ([6]; 80 mg/Kg p.o.): 26% | Inhibition % ([6]; 120 mg/Kg p.o.): 26% | RANDALL-SELLITO pain threshold over checks (pain threshold; 23,7 mg/Kg p.o., 1 hour): 55 | RANDALL-SELLITO pain threshold over checks (pain threshold; 23,7 mg/Kg p.o., 2 hours): 7 | RANDALL-SELLITO pain threshold over checks (pain threshold; 35,6 mg/Kg p.o., 1 hour): 49 | RANDALL-SELLITO pain threshold over checks (pain threshold; 35,6 mg/Kg p.o., 2 hours): 32 | RANDALL-SELLITO pain threshold over checks (pain threshold; 53,45 mg/Kg p.o., 1 hour): 47 | RANDALL-SELLITO pain threshold over checks (pain threshold; 53,45 mg/Kg p.o., 2 hours): 16 | endurance time at 52° C. over checks [7]: 38 | endurance time at 52° C. over checks ([8]; Hot plate (II), 35,6 mg/Kg p.o., 1 hour): 22 | endurance time at 52° C. over checks ([8]; Hot plate (II), 35,6 mg/Kg p.o., 2 hours): 43 | endurance time at 52° C. over checks ([8]; Hot plate (II), 53,45 mg/Kg p.o., 1 hour): 45 | endurance time at 52° C. over checks ([8]; Hot plate (II), 53,45 mg/Kg p.o., 2 hours): 29 | endurance time at 52° C. over checks ([8]; Hot plate (II), 80,18 mg/Kg p.o., 1 hour): 26 | LD50 (in vivo): 900 mg/kg | % inhibition [1]: 32%
